From US11109593B2, “Isoxazolin-5-one derivative and herbicide containing same as active ingredient” (HOKKO CHEMICAL INDUSTRY CO., LTD., priority 2017, dated 2021)

How the values were obtained:
Type in all cases: in vivo
Echinochloa crus-galli [1] = experiment: Test Example 3: herbicidal effect test by treatment of dry field farming soil (one day after seeding); settings: 120 g/10a active ingredient, evaluated 14 days after treatment
Method in brief: (§1)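 Pre-emergence soil treatment: alluvial dry-field soil, 20 seeds per species mixed into top 1 cm, emulsion diluted in water sprayed one day after seeding at 100 L per 10 ares (120 g active ingredient per 10 ares). Duplicate pots; herbicidal rate (%) from dry weight vs untreated at 14 days.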

southern crabgrass [2] = experiment: as above; settings: 120 g/10a active ingredient, evaluated 14 days after treatment
Method in brief: as §1

Amaranthus viridis [3] = experiment: as above; settings: 120 g/10a active ingredient, evaluated 14 days after treatment
Method in brief: as §1

Chenopodium album [4] = experiment: as above; settings: 120 g/10a active ingredient, evaluated 14 days after treatment
Method in brief: as §1

Echinochloa crus-galli [5] = experiment: Test Example 4: herbicidal effect test by treatment of leave and stem in dry field farming (seven days after seeding); settings: 120 g/10a active ingredient; emulsion sprayed seven days after seeding; evaluated 14 days after treatment
Method in brief: (§2)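 Duplicate pots were scored 14 days post-spray by dry weight, herbicidal rate = {1 − treated/untreated average dry weight} × 100. The water-diluted emulsion, equivalent to 120 g active ingredient per 10 ares in 100 L, was applied seven days after sowing 20 seeds each into the upper 1 cm of alluvial soil.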

southern crabgrass [6] = experiment: as above; settings: 120 g/10a active ingredient; emulsion sprayed seven days after seeding; evaluated 14 days after treatment
Method in brief: as §2

Amaranthus viridis [7] = experiment: as above; settings: 120 g/10a active ingredient; emulsion sprayed seven days after seeding; evaluated 14 days after treatment
Method in brief: as §2

Chenopodium album [8] = experiment: as above; settings: 120 g/10a active ingredient; emulsion sprayed seven days after seeding; evaluated 14 days after treatment
Method in brief: as §2

Echinochloa crus-galli [9] = experiment: Test Example 2: herbicidal effect test by treatment during growing period in paddy rice cultivation (seven days after seeding); settings: 120 g/10a active ingredient, assessed 14 days after treatment, dry weight vs untreated area
Method in brief: (§3)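 Paddy soil in Wagner pots with compound fertilizer, puddled; 30 seeds per species sown at 0–1 cm, flooded ~3 cm, greenhouse. Seven days after seeding, water-diluted emulsions were dropped into the water at 120 g active ingredient per 10 ares. Duplicate pots; herbicidal rate from dry weight versus untreated, 14 days after treatment.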

[10] = test system: broad leaf weeds (Lindernia pyxidaria and Monochoria vaginalis); experiment: as above; settings: 120 g/10a active ingredient, assessed 14 days after treatment, dry weight vs untreated area
Method in brief: as §3

Scirpus juncoides [11] = experiment: as above; settings: 120 g/10a active ingredient, assessed 14 days after treatment, dry weight vs untreated area
Method in brief: as §3

Echinochloa crus-galli [12] = experiment: Test Example 1: herbicidal effect test by treatment of rice paddy soil (immediately after seeding); settings: 120 g/10a active ingredient, dry weight vs untreated area, 14 days after treatment
Method in brief: (§4)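 Flooded paddy pot test in a glass greenhouse: emulsion diluted in water, dropped at 120 g a.i. per 10 ares just after sowing, water depth kept about 3 cm. Dry-weight reduction relative to untreated plants is scored at 14 days.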

[13] = test system: broad leaf weeds (Lindernia pyxidaria and Monochoria vaginalis); experiment: as above; settings: 120 g/10a active ingredient, dry weight vs untreated area, 14 days after treatment
Method in brief: as §4

Scirpus juncoides [14] = experiment: as above; settings: 120 g/10a active ingredient, dry weight vs untreated area, 14 days after treatment
Method in brief: as §4

Row | Compound | herbicidal rate, Echinochloa crus-galli (Echinochloa crus-galli [1]) [%] | herbicidal rate, southern crabgrass (southern crabgrass [2]) [%] | herbicidal rate, Amaranthus viridis (Amaranthus viridis [3]) [%] | herbicidal rate, Chenopodium album (Chenopodium album [4]) [%] | herbicidal effect (herbicidal rate), Echinochloa crus-galli (Echinochloa crus-galli [5]) [%] | herbicidal effect (herbicidal rate), southern crabgrass (southern crabgrass [6]) [%] | herbicidal effect (herbicidal rate), Amaranthus viridis (Amaranthus viridis [7]) [%] | herbicidal effect (herbicidal rate), Chenopodium album (Chenopodium album [8]) [%] | Herbicidal rate (%) Echinochloa crus-galli (Echinochloa crus-galli [9]) [%] | Herbicidal rate (%) Lindernia pyxidaria [10] [%] | Herbicidal rate (%) Monochoria vaginalis [10] [%] | Herbicidal rate (%) Scirpus juncoides (Scirpus juncoides [11]) [%] | Herbicidal rate (%) Echinochloa crus-galli (Echinochloa crus-galli [12]) [%] | Herbicidal rate (%) Lindernia pyxidaria [13] [%] | Herbicidal rate (%) Monochoria vaginalis [13] [%] | Herbicidal rate (%) Scirpus juncoides (Scirpus juncoides [14]) [%]
1 | Cc1c(Cc2ccccc2N(C(=O)C(C)C)S(=O)(=O)C(F)(F)F)c(=O)on1CC(C)(C)C [Compound 1-333] | 90 | 90 | 90 | 90 | 90 | 90 | 40 | 40 | 90 | 90 | 90 | 90 | 90 | 90 | 90 | 90
2 | CCC(C)Cn1oc(=O)c(Cc2ccccc2N(S(C)(=O)=O)S(=O)(=O)C(F)(F)F)c1C (stereo not shown) [Compound 1-895] | 100 | 100 | 80 | 50 | 80 | 80 | 50 | 60 | 90 | 70 | 80 | 90 | 100 | 90 | 80 | 90
3 | Cc1c(Cc2ccccc2NS(=O)(=O)C(F)(F)F)c(=O)on1CCC(C)(C)C [Compound 1-116] | 90 | 90 | 80 | 50 | 80 | 40 | 60 | 50 | 90 | 60 | 80 | 90 | 90 | 90 | 80 | 90
4 | Cc1c(Cc2ccccc2N(S(=O)(=O)C(F)(F)F)S(=O)(=O)C(F)(F)F)c(=O)on1CCC(C)C [Compound 1-974] | 90 | 90 | 100 | 100 | 90 | 50 | 40 | 40 | 100 | 90 | 90 | 90 | 100 | 90 | 80 | 90
5 | CCC(C)CCn1oc(=O)c(Cc2ccccc2N(S(=O)(=O)C(F)(F)F)S(=O)(=O)C(F)(F)F)c1C (stereo not shown) [Compound 1-978] | 80 | 90 | 90 | 90 | 60 | 50 | 40 | 40 | 100 | 50 | 60 | 60 | 100 | 90 | 80 | 90
6 | COC(=O)N(c1ccccc1Cc1c(C)n(CCSC)oc1=O)S(=O)(=O)C(F)(F)F [Compound 1-592] | 90 | 90 | 90 | 90 | 90 | 90 | 40 | 40 | 90 | 90 | 90 | 90 | 90 | 90 | 90 | 90
7 | CCC(c1ccccc1)n1oc(=O)c(Cc2ccccc2NS(=O)(=O)C(F)(F)F)c1C (stereo not shown) [Compound 1-211] | 90 | 90 | 0 | 0 | 90 | 60 | 40 | 50 | 90 | 60 | 80 | 90 | 90 | 90 | 90 | 90
8 | CCC(=O)N(c1ccccc1Cc1c(C)n(C(C)c2ccccc2)oc1=O)S(=O)(=O)C(F)(F)F (stereo not shown) [Compound 1-321] | 90 | 90 | 90 | 90 | 90 | 90 | 40 | 40 | 90 | 90 | 90 | 90 | 90 | 90 | 90 | 90
9 | CCC(C)n1oc(=O)c(Cc2ccccc2N(C(=O)C(C)C)S(=O)(=O)C(F)(F)F)c1C (stereo not shown) [Compound 1-330] | 90 | 90 | 90 | 90 | 90 | 90 | 40 | 40 | 90 | 90 | 90 | 90 | 90 | 90 | 90 | 90
10 | Cc1c(Cc2ccccc2NS(=O)(=O)C(F)(F)F)c(=O)on1CC1(C)CC1 [Compound 1-145] | 90 | 80 | 40 | 40 | 90 | 50 | 0 | 40 | 90 | 60 | 80 | 80 | 100 | 100 | 100 | 100
